Test results published in PubChem BioAssay AID588773 (The Scripps Research Institute Molecular Screening Center, 2011).
The source made the active and inactive calls.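 Rule for the calls: active = inhibition of plasma PAF acetylhydrolase at a set limit or more at 0.1 µM, with tenfold selectivity over all off-targets; inactive = inhibition below the limit or weaker selectivity.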

Columns and labels:
ABHD6 = experiment: pPAFAH inhibition and serine hydrolase selectivity, late-stage follow-up, selectivity assay for pPAFAH inhibitor project, biochemical, gel-based, FP-Rh fluorescence, mouse, HTS hit compounds (AID 588773); conditions: gel-based competitive ABPP, proteome; for inhibition: stronger effect = higher value
LYPLA1 = experiment: as above; conditions: gel-based competitive ABPP, proteome, at 10 µM
ABHD4 = ABHD4 (UniProt Q8VD66); experiment: as above; conditions: gel-based competitive ABPP, proteome, at 10 µM
[1] = biological target: Monoglyceride lipase (Mus musculus) (UniProt O35678); experiment: as above; conditions: gel-based competitive ABPP, proteome, MAGL; for inhibition: stronger effect = higher value
LYPLA2 = experiment: as above; conditions: gel-based competitive ABPP, proteome, at 10 µM
[2] = as above; conditions: gel-based competitive ABPP, proteome, MW 30 kDa protein, stronger effect = higher value
FAAH = experiment: as above; conditions: gel-based competitive ABPP, proteome, stronger effect = higher value
[3] = biological target: Platelet-activating factor acetylhydrolase (Mus musculus) (UniProt Q60963); experiment: as above; conditions: gel-based competitive ABPP, proteome, pPAFAH, stronger effect = higher value
ABHD3 = experiment: as above; conditions: gel-based competitive ABPP, proteome, at 10 µM

Sequence of Monoglyceride lipase (Mus musculus) (O35678 whole entry, looked up): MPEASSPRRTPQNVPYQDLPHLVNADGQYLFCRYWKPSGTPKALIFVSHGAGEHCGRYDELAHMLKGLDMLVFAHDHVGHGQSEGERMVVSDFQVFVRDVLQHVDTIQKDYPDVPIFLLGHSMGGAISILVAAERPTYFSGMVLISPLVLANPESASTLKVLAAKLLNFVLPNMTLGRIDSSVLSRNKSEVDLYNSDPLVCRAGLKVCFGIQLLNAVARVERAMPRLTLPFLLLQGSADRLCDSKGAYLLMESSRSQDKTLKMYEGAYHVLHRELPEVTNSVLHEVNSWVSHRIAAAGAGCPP
Sequence of Platelet-activating factor acetylhydrolase (Mus musculus) (Q60963 whole entry, looked up): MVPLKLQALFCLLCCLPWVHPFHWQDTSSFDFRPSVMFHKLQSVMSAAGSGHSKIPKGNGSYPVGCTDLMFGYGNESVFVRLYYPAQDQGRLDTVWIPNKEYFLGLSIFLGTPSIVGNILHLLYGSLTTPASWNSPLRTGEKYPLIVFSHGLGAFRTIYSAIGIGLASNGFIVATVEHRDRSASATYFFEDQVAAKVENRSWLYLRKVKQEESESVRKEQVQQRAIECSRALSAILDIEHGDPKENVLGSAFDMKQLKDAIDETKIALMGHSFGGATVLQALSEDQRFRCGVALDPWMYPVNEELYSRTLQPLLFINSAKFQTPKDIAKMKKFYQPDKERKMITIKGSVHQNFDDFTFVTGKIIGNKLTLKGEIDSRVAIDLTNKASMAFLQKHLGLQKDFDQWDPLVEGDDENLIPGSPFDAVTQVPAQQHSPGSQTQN
Sequence of ABHD4 (Q8VD66 whole entry, looked up): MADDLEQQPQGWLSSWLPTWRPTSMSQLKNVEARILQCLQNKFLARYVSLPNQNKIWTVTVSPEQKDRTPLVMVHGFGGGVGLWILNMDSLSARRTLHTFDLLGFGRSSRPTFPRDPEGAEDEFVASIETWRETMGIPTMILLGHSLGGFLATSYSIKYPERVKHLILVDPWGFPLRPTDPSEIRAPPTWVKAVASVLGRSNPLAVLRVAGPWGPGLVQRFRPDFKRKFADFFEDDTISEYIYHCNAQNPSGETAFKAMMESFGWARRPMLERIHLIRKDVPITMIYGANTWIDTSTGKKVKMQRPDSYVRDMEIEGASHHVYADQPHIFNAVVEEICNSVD

SMILES	inhibition (ABHD6; at 10 µM)	inhibition (ABHD6; inhibition, at 1 µM) [%]	outcome (LYPLA1)	outcome (ABHD4)	inhibition ([1]; at 10 µM)	inhibition ([1]; inhibition, at 1 µM) [%]	outcome (LYPLA2)	inhibition ([2]; at 0.1 µM) [%]	inhibition ([2]; at 1 µM) [%]	inhibition (FAAH; at 10 µM)	inhibition (FAAH; inhibition, at 1 µM) [%]	inhibition ([3]; at 10 µM)	inhibition ([3]; inhibition, at 0.1 µM) [%]	inhibition ([3]; inhibition, at 1 µM) [%]	outcome (ABHD3)	inhibition (ABHD6; inhibition, at 0.1 µM) [%]	inhibition (FAAH; inhibition, at 0.1 µM) [%]	outcome (ABHD6; at 10 µM)	outcome ([1]; at 10 µM)
O=C(Oc1ccc(-c2ccccc2)cc1)N1CCCCC1	53% (inactive)	34	inactive	inactive	40% (inactive)	36	inactive	18	60	99% (inactive)	56	95% (inactive)	35	33	inactive	–	–	–	–
O=C(Oc1ccc(-c2ccccc2)cc1)N1CCOCC1	25% (inactive)	16	inactive	inactive	20% (inactive)	6	inactive	21	27	83% (inactive)	31	94% (inactive)	32	78	inactive	12	23	–	–
O=C(CCCSc1ccc(Cl)cc1)Nc1cc(S(=O)(=O)N2CCOCC2)ccc1O	26% (inactive)	–	inactive	inactive	27% (inactive)	–	inactive	–	–	25% (inactive)	–	88% (inactive)	18	50	inactive	–	–	–	–
O=C(/C=C/c1cccs1)c1cc(Br)ccc1OC(=O)N1CCOCC1	–	–	inactive	inactive	–	–	inactive	–	–	61% (inactive)	18	75% (inactive)	–	56	inactive	–	–	inactive	inactive
O=C(Oc1nsnc1N1CCOCC1)N1CCOCC1	39% (inactive)	29	inactive	inactive	–	–	inactive	4	23	85% (inactive)	80	86% (inactive)	–	28	inactive	–	–	–	inactive
O=C(Oc1ccc([N+](=O)[O-])cc1)N1CCC(N2CCCCC2)CC1	48% (inactive)	22	inactive	inactive	45% (inactive)	23	inactive	–	22	60% (inactive)	30	92% (inactive)	–	66	inactive	–	–	–	–
CCCCOC(=O)c1ccc(OC(=O)N2CCOCC2)cc1	22% (inactive)	9	inactive	inactive	–	–	inactive	–	–	62% (inactive)	30	90% (inactive)	5	70	inactive	–	–	–	inactive
CN(C)C(=O)Oc1noc2cc(Cl)ccc12	65% (inactive)	26	inactive	inactive	33% (inactive)	2	inactive	–	6	100%	100	100% (inactive)	47	92	inactive	21	100	–	–
O=C(Oc1ccc(Oc2ccccc2)cc1)N1CCC(O)CC1	39% (inactive)	19	inactive	inactive	–	–	inactive	–	–	17% (inactive)	2	92% (inactive)	–	62	inactive	–	–	–	inactive
